Data taken from patent publication US8703792B2, “C-1 analogs of pancratistatin and 7-deoxypancratistatin and processes for their preparation” (Brock University, priority 2008, dated 2014).
≈ marks a conversion by molar mass, not a printed value. Entries after “also recorded” stand apart in the source; their conditions may differ.

What was measured:
[1] = system: leukemia P388; test: Cancer cell line growth inhibition, leukemia P388; type: cell-based, murine; conditions: Mus musculus, read-out: Inhibitory Activities: IC50, leukemia P388
[2] = system: human pancreatic adenocarcinoma cancer cell line BxPC-3; test: MTT assay, pancreas BxPC-3; type: cell-based; conditions: 48 hrs, read-out: Inhibitory Activities: IC50, pancreas BxPC-3
Experimental: (§1) Human non-small cell lung cancer line NCI-H460 (ATCC # HTB-177) and human pancreatic adenocarcinoma cancer cell line BxPC-3 (ATCC # CRL-1687) were cultured in RPMI-1640 medium supplemented with 10% fetal bovine serum (FBS) (Gibco, Carlsbad, Calif.), 100 mg/L penicillin G and 100 mg/L streptomycin and (Cellgro, Manassas, Va.). Human prostate carcinoma cells DU-145 (ATCC # HTB-81) were cultured in Dulbecco's modified Eagle Medium (Cellgro) supplemented with 10% FBS, 100 mg/L penicillin G and 100 mg/L streptomycin. Human mammary carcinoma cells MCF-7 (ATCC # HTB-22) were cultured using Dulbecco's modified Eagle Medium supplemented with 10% FBS, 100 mg/L penicillin G, 100 mg/L streptomycin, 1.0 mM Glutamax and 1.0 mM sodium pyruvate, (Gibco).
(§2) In addition, the BxPC-3, […], DU-145 and MCF-7 lines were assessed by seeding 4×10^3 cells per well into microplates. The cells were grown for 24 hrs before treatment at concentrations ranging from 0.01 to 10 μM and incubated for 48 hrs. MTT reagent (5 mg/mL, MP Biomedical, Solon, Ohio) was added to each well and incubated further for 2 hrs. The resulting formazan crystals were dissolved in DMSO and the OD was determined at a wavelength of 490 nm. The experiments were repeated at least twice for each compound per cell line. Cells treated with 0.1% DMSO were used as a control.

[3] = system: Human mammary carcinoma cells MCF-7; test: MTT assay, breast MCF-7; type: cell-based; conditions: MCF7, 48 hrs, read-out: Inhibitory Activities: IC50, breast MCF-7
Experimental: as §1, §2

[4] = system: CNS SF-268; test: Cancer cell line growth inhibition, CNS SF-268; type: cell-based; conditions: Homo sapiens, read-out: Inhibitory Activities: IC50, CNS SF-268
[5] = system: Human non-small cell lung cancer line NCI-H460; test: MTT assay, lung-NSC NCI-H460; type: cell-based; conditions: 48 hrs, read-out: Inhibitory Activities: IC50, lung-NSC NCl-H460
Experimental: as §1, §2

[6] = system: colon KM20L2; test: Cancer cell line growth inhibition, colon KM20L2; type: cell-based; conditions: Homo sapiens, KM-20L2; read-out: Inhibitory Activities: IC50, colon KM20L2
[7] = system: Human prostate carcinoma cells DU-145; test: MTT assay, prostate DU-145; type: cell-based; conditions: 48 hrs, read-out: Inhibitory Activities: IC50, prostate DU-145
Experimental: as §1, §2

[8] = system: B-cell leukemia (Jurkat) cell line; test: MTT assay, leukemia Jurkat; type: cell-based; conditions: Homo sapiens, read-out: Inhibitory Activities: IC50, leukemia Jurkat
Experimental: (§3) The Human neuroblastoma (SH-SY5Y) and B-cell leukemia (Jurkat) cell lines were purchased from ATCC (Manassas, Va.). Cells were maintained and grown at 37° C., 95% humidity and 5% CO2. Jurkat cells were grown with RPMI-1640 media (Sigma-Aldrich, Oakville, ON, Canada) supplemented with 10% fetal bovine serum (FBS) and 10 mg/ml Gentamycin (Gibco BRL, Mississauga, ON, Canada). SH-SY5Y cells were grown with Dulbecco's Modified Eagles Medium (DMEM) HAM F12 (Sigma-Aldrich), supplemented with 2 mM L-Glutamine, 10 mg/ml Gentamycin, and 10% FBS. Normal Human Fibroblasts (NHFs) obtained from Coriell Institute for Medical Research (New Jersey, USA) were cultured in Earle's Minimum Essential Medium (MEME) (Sigma Chemical Company, Mississauga, Ontario, Canada) completed with 15% fetal bovine serum, 2 mM L-Glutamine, 10 mg/ml Gentamycin, 1.5 g/l sodium bicarbonate, 1% vitamins, and essential (2%) and non-essential amino acids (1%) (Gibco BRL, VWR, Mississauga, ON, Canada).
(§4) To evaluate the cytotoxic effects of the C-1 derivatives of 7-deoxypancratistatin, mitochondrial dehydrogenase activities were measured. Jurkat and SH-SY5Y cells were grown and treated for 24, 48, and 72 hrs. Cells were treated with concentrations ranging from 0.25 to 10 μM of each derivative dissolved in DMSO Similarly, ncPBMCs and NHFs were treated to assess the effects of the C-1 derivatives on non-cancerous cells.

[9] = system: Human neuroblastoma (SH-SY5Y) cell line; test: MTT assay, neuroblastoma SH-SY5Y; type: cell-based; conditions: read-out: Inhibitory Activities: IC50, neuroblastoma Shsy5y
Experimental: as §3, §4

[10] = system: Jurkat cells; test: Apoptosis induction (Hoechst staining, Annexin-V binding) in Jurkat cells; type: cell-based, human; conditions: for Apoptotic morphology: 72 hours treatment, Hoechst staining and Annexin-V binding; for EC50: Homo sapiens, 72 hrs exposure, Hoechst staining, read-out: effective dose at which 50% of cells were apoptotic (ED50)
Experimental: as §3
(§5) Nuclear morphology was visualized using a final concentration of 10 μM of Hoechst 33342 dye (Molecular Probes, Eugene, Oreg., USA). Phosphatidyl serine flipping, (an apoptotic biochemical marker) was visualized with Annexin-V-FITC binding assay as per manufacturer's protocol (Molecular Probes, Eugene Oreg., USA). […] Apoptotic cells were expressed as a percentage of the total number of cells counted. Standard error was calculated from at least 3 separate experiments.

[11] = system: SH-SY5Y cells; test: Apoptosis induction (Hoechst staining, Annexin-V binding) in SH-SY5Y cells; type: cell-based, human; conditions: for Apoptotic morphology: 72 hours treatment, Hoechst staining and Annexin-V binding; for EC50: Homo sapiens, 72 hrs exposure, Hoechst staining, read-out: effective dose at which 50% of cells were apoptotic (ED50)
Experimental: as §3, §5

[12] = system: normal human fibroblasts (NHFs); test: Apoptosis induction (Hoechst staining) in normal human fibroblasts; type: cell-based
Experimental: as §3
To evaluate the cytotoxic effects of the C-1 derivatives of 7-deoxypancratistatin, mitochondrial dehydrogenase activities were measured. […]
Nuclear morphology was visualized using a final concentration of 10 μM of Hoechst 33342 dye (Molecular Probes, Eugene, Oreg., USA). […] Apoptotic cells were expressed as a percentage of the total number of cells counted. Standard error was calculated from at least 3 separate experiments.

[13] = system: non-cancerous peripheral blood mononuclear cells (ncPBMC); test: Apoptosis induction (Hoechst staining) in non-cancerous peripheral blood mononuclear cells; type: cell-based, human; conditions: peripheral blood mononuclear cells from healthy volunteers
Description: Peripheral blood was obtained from healthy non-smoking volunteers aged 25-50 years upon written and informed consent (University of Windsor REB #04-147). Whole blood samples were collected in BD Vacutainer™ Cell Preparation Tube and mononuclear cells were separated by density gradient centrifugation. The isolated cells were maintained in RPMI 1640 media supplemented and maintained as was the Jurkat culture.
as §4, §5

| SMILES | melting point | IC50 [1] | IC50 [2] | IC50 [3] | IC50 [4] | IC50 [5] | IC50 [6] | IC50 [7] | IC50 [8] | IC50 [9] | Apoptotic morphology [10] | EC50 [10] | Apoptotic morphology [11] | EC50 [11] | induction of apoptosis in non-cancerous cells [12] | induction of apoptosis in non-cancerous cells [13] |
| --- | --- | --- | --- | --- | --- | --- | --- | --- | --- | --- | --- | --- | --- | --- | --- | --- |
| COC(=O)[C@H]1[C@H](O)[C@@H](O)[C@@H](O)[C@@H]2NC(=O)c3cc4c(cc3[C@H]21)OCO4 | > 200 °C | – | – | – | – | – | – | – | – | – | – | – | – | – | – | – |
| O=C1N[C@H]2[C@H](O)[C@H](O)[C@@H](O)[C@H](O)[C@@H]2c2cc3c(c(O)c21)OCO3 [Compound 1, pancratistatin] | – | 0.039 µg/mL (≈ 0.12 µM) | 0.028 µg/mL (≈ 0.0861 µM) | 0.032 µg/mL (≈ 0.0984 µM) | 0.017 µg/mL (≈ 0.0523 µM) | 0.048 µg/mL (≈ 0.148 µM) | 0.062 µg/mL (≈ 0.191 µM) | 0.016 µg/mL (≈ 0.0492 µM) | 0.163 µg/mL (≈ 0.501 µM) | 0.163 µg/mL (≈ 0.501 µM) | – | – | – | – | – | – |
| O=C1N[C@H]2[C@H](O)[C@H](O)[C@@H](O)[C@H](O)[C@@H]2c2cc3c(cc21)OCO3 [Compound 4, 7-deoxypancratistatin] | – | 0.44 µg/mL (≈ 1.42 µM) | – | – | – | 0.29 µg/mL (≈ 0.938 µM) | 0.22 µg/mL (≈ 0.711 µM) | – | – | – | – | – | – | – | – | – |
| CC(=O)OC[C@H]1[C@H](O)[C@@H](O)[C@@H](O)[C@@H]2NC(=O)c3cc4c(cc3[C@@H]12)OCO4 [I(c), ((1S,2S,3R,4S,4aR,11bR)-2,3,4-trihydroxy-6-oxo-1,2,3,4,4a,5,6,11b-octahydro-[1,3]dioxolo[4,5-j]phenanthridin-1-yl)methyl acetate] | > 200 °C | – | 0.11 µg/mL | 0.29 µg/mL | – | 0.11 µg/mL | – | 0.37 µg/mL | 0.183 µg/mL | 0.183 µg/mL | Apoptotic morphology was observed | 500 nM | Apoptotic morphology was observed | 500 nM | did not induce apoptosis; also recorded: does not induce apoptosis | did not induce apoptosis; also recorded: does not induce apoptosis |
| O=C1N[C@H]2[C@H](O)[C@H](O)[C@@H](O)[C@H](CO)[C@@H]2c2cc3c(cc21)OCO3 [I(d), (1S,2S,3R,4S,4aR,11bR)-2,3,4-trihydroxy-1-(hydroxymethyl)-1,2,3,4,4a, 5-hexahydro-[1,3]dioxolo[4,5-j]phenanthridin-6(11bH)-one] | > 200 °C | – | 0.19 µg/mL (≈ 0.588 µM) | 0.65 µg/mL (≈ 2.01 µM) | – | 0.09 µg/mL (≈ 0.278 µM) | – | 0.26 µg/mL (≈ 0.804 µM) | 1.61 µg/mL (≈ 5 µM) | 1.61 µg/mL (≈ 5 µM) | Apoptotic morphology was observed | 1000 nM | Apoptotic morphology was observed | 10000 nM | – | – |
